According to patent publication US11369654B2, “Application method of Dendrobium candidum in preparing medicine for treating hypertension” (Hangzhou Danhe Pharmaceutical CO., Ltd., priority 2017, dated 2022):
Values joined by “and” are separate entries in the source; they are usually repeats but may differ in a detail not shown here. Identical values can stand only once.

Tests used:
[1] = tested on: Spontaneously Hypertensive Rats (SHR); assay: Experiment 2: hypotensive effect of samples of Embodiment 1 and 2, tail artery blood pressure; format: in vivo, rat; details: for valley-peak ratio of Systolic Blood Pressure Reduction: 24 h divided by 2 h after administration
Protocol: Rats: 10 weeks old Spontaneously Hypertensive Rats (SHR), Wistar rats were used as normal controls.
(§1) Rat Blood Pressure Measurement: BP-98A Non-invasive Tail Artery Blood Pressure Meter, Japan Soft Rotation Co., Ltd.
Group therapy is described in the following description. Blood pressure and body weight are measured and grouped after one week of adaptive feeding in all rats. […] Eight rats in each group are treated for 8 weeks. Blood pressure is observed for 1 week after withdrawal.
Blood pressure measurement: The rats are preheated at 38° C. for 5-10 minutes to avoid blood flow in the tail of the rat. The blood pressure of the rats is measured three times in a waking and quiet state, and the average value of three measurement times is used as the blood pressure of the rats. Blood pressure is measured twice a week, once 2 hours after administration and once 24 hours after administration, to observe the immediate antihypertensive effect and after 24 hours antihypertensive effect (and the peak-to-valley ratio).
(§2) The valley-peak ratio calculation of depressurization amplitude: The difference of blood pressure before treatment minus 24 hours after administration is the trough of the range of blood pressure reduction, which is the lowest point before the next administration; the difference of blood pressure before treatment and 2 hours after administration is the peak value of blood pressure reduction, that is, the maximum point of blood pressure reduction after administration. Valley value of depressurization amplitude divided by peak value of depressurization amplitude is equal to valley-peak ratio of depressurization amplitude.

[2] = tested on: Spontaneously Hypertensive Rats (SHR); assay: Experiment 4: antihypertensive effect of the sample of Example 1 on SHR; format: in vivo, rat
Protocol: Rats: Spontaneously Hypertensive Rats (SHR), Wistar rats were used as normal controls.
as §1
Group therapy is described in the following description. Blood pressure and body weight are measured and grouped after one week of adaptive feeding in all rats. […] Eight rats in each group are treated for 2 weeks.
The following description describes the blood pressure measurement. The rats are preheated at 38° C. for 5-10 minutes to avoid blood flow in the tail of the rat. The blood pressure of the rats is measured three times in a waking and quiet state, and the average value of three times is used as the blood pressure of the rats. Blood pressure is measured twice a week, once 2 hours after administration and once 24 hours after administration, to observe the immediate antihypertensive effect and after 24 hours antihypertensive effect (and the peak-to-valley ratio).
as §2, with “The following description discusses the trough-peak” for “The valley-peak”, “depressurization amplitude.” for “depressurization amplitude:”

[3] = 2 h after administration, treatment for 1 week, 0.8 g/kg crude drug, amlodipine 0.5 mg/kg
[4] = 2 h after administration, treatment for 1 week, 0.8 g/kg crude drug, amlodipine 0.5 mg/kg, listed as amlodipine
[5] = 2 h after administration, treatment for 2 weeks, 0.8 g/kg crude drug, amlodipine 0.5 mg/kg
[6] = 2 h after administration, treatment for 3 weeks, 0.8 g/kg crude drug, amlodipine 0.5 mg/kg
[7] = 2 h after administration, treatment for 4 weeks, 0.8 g/kg crude drug, amlodipine 0.5 mg/kg
[8] = 2 h after administration, treatment for 5 weeks, 0.8 g/kg crude drug, amlodipine 0.5 mg/kg
[9] = 2 h after administration, treatment for 6 weeks, 0.8 g/kg crude drug, amlodipine 0.5 mg/kg
[10] = 2 h after administration, treatment for 7 weeks, 0.8 g/kg crude drug, amlodipine 0.5 mg/kg
[11] = 2 h after administration, treatment for 8 weeks, 0.8 g/kg crude drug, amlodipine 0.5 mg/kg
[12] = 2 h after administration, treatment for 8 weeks, 0.8 g/kg crude drug, amlodipine 0.5 mg/kg, listed as amlodipine
[13] = 24 h after administration, treatment for 1 week, 0.8 g/kg crude drug, amlodipine 0.5 mg/kg
[14] = 24 h after administration, treatment for 2 weeks, 0.8 g/kg crude drug, amlodipine 0.5 mg/kg
[15] = 24 h after administration, treatment for 3 weeks, 0.8 g/kg crude drug, amlodipine 0.5 mg/kg
[16] = 24 h after administration, treatment for 4 weeks, 0.8 g/kg crude drug, amlodipine 0.5 mg/kg
[17] = 24 h after administration, treatment for 5 weeks, 0.8 g/kg crude drug, amlodipine 0.5 mg/kg
[18] = 24 h after administration, treatment for 6 weeks, 0.8 g/kg crude drug, amlodipine 0.5 mg/kg
[19] = 24 h after administration, treatment for 7 weeks, 0.8 g/kg crude drug, amlodipine 0.5 mg/kg
[20] = 24 h after administration, treatment for 8 weeks, 0.8 g/kg crude drug, amlodipine 0.5 mg/kg
[21] = 24 h after administration, treatment for 8 weeks, 0.8 g/kg crude drug, amlodipine 0.5 mg/kg, listed as amlodipine
[22] = stopping for 1 week after 8 weeks of treatment
[23] = stopping for 3 days after 8 weeks of treatment
[24] = stopping for 3 days after 8 weeks of treatment, listed as amlodipine
[25] = treatment for 1 week, 0.8 g/kg crude drug, amlodipine 0.5 mg/kg
[26] = treatment for 2 weeks, 0.8 g/kg crude drug, amlodipine 0.5 mg/kg
[27] = treatment for 3 weeks, 0.8 g/kg crude drug, amlodipine 0.5 mg/kg
[28] = treatment for 4 weeks, 0.8 g/kg crude drug, amlodipine 0.5 mg/kg
[29] = treatment for 5 weeks, 0.8 g/kg crude drug, amlodipine 0.5 mg/kg
[30] = treatment for 6 weeks, 0.8 g/kg crude drug, amlodipine 0.5 mg/kg
[31] = treatment for 7 weeks, 0.8 g/kg crude drug, amlodipine 0.5 mg/kg
[32] = treatment for 8 weeks, 0.8 g/kg crude drug, amlodipine 0.5 mg/kg
[33] = 2 h after administration, treatment for 1 week, medium dose 0.8 g/kg crude drug, amlodipine 0.5 mg/kg
[34] = 2 h after administration, treatment for 2 weeks, medium dose 0.8 g/kg crude drug, amlodipine 0.5 mg/kg
[35] = 24 h after administration, treatment for 1 week, medium dose 0.8 g/kg crude drug, amlodipine 0.5 mg/kg
[36] = 24 h after administration, treatment for 2 weeks, medium dose 0.8 g/kg crude drug, amlodipine 0.5 mg/kg
[37] = before treatment, medium dose group 0.8 g/kg crude drug, amlodipine group 0.5 mg/kg
[38] = treatment for 1 week, medium dose 0.8 g/kg crude drug, amlodipine 0.5 mg/kg
[39] = treatment for 2 weeks, medium dose 0.8 g/kg crude drug, amlodipine 0.5 mg/kg

`CCOC(=O)C1=C(COCCN)NC(C)=C(C(=O)OC)C1c1ccccc1Cl` (centres unmarked) [Amlodipine, amlodipine besylate] gave a diastolic blood pressure [1, 3] of 143.2 mmHg, a systolic blood pressure [1, 3] of 175.1 mmHg and a diastolic blood pressure [1, 4] of 143.2±6.41 mmHg. It also gave a systolic blood pressure [1, 4] of 175.1±4.44 mmHg, a diastolic blood pressure [1, 5] of 145.5 mmHg and a systolic blood pressure [1, 5] of 178.3 mmHg. The diastolic blood pressure [1, 6] was 144.7 mmHg, the systolic blood pressure [1, 6] was 177.8 mmHg and the diastolic blood pressure [1, 7] was 146.2 mmHg. The systolic blood pressure [1, 7] was 175.7 mmHg, the diastolic blood pressure [1, 8] was 137.6 mmHg and the systolic blood pressure [1, 8] was 174.3 mmHg. It also gave a diastolic blood pressure [1, 9] of 143.1 mmHg, a systolic blood pressure [1, 9] of 178.8 mmHg and a diastolic blood pressure [1, 10] of 139.9 mmHg. The systolic blood pressure [1, 10] was 175.8 mmHg, the diastolic blood pressure [1, 11] was 144.7 mmHg and the systolic blood pressure [1, 11] was 178.1 mmHg. The diastolic blood pressure [1, 12] was 144.7±3.43 mmHg, the systolic blood pressure [1, 12] was 178.1±2.67 mmHg and the diastolic blood pressure [1, 13] was 162.3 mmHg. For the same compound, the systolic blood pressure [1, 13] was 200.7 mmHg, the diastolic blood pressure [1, 14] was 158.6 mmHg and the systolic blood pressure [1, 14] was 202.6 mmHg. For the same compound, the diastolic blood pressure [1, 15] was 159.0 mmHg, the systolic blood pressure [1, 15] was 201.6 mmHg and the diastolic blood pressure [1, 16] was 161.3 mmHg. The systolic blood pressure [1, 16] was 209.0 mmHg, the diastolic blood pressure [1, 17] was 161.8 mmHg and the systolic blood pressure [1, 17] was 207.8 mmHg. For the same compound, the diastolic blood pressure [1, 18] was 165.0 mmHg, the systolic blood pressure [1, 18] was 202.8 mmHg and the diastolic blood pressure [1, 19] was 156.3 mmHg. It also gave a systolic blood pressure [1, 19] of 199.5 mmHg, a diastolic blood pressure [1, 20] of 154.3 mmHg and a systolic blood pressure [1, 20] of 202.0 mmHg. It also gave a diastolic blood pressure [1, 21] of 154.3±5.50 mmHg, a systolic blood pressure [1, 21] of 202.0±5.88 mmHg and a diastolic blood pressure ([1]; before treatment) of 156.0 mmHg. For the same compound, the systolic blood pressure ([1]; before treatment) was 209.8 mmHg and 209.8 ± 8.92 mmHg, the diastolic blood pressure [1, 22] was 155.4 mmHg and the systolic blood pressure [1, 22] was 214.2 mmHg. The diastolic blood pressure [1, 23] was 158.7 mmHg, the systolic blood pressure [1, 23] was 205.4 mmHg and the diastolic blood pressure [1, 24] was 158.7±2.79 mmHg. For the same compound, the systolic blood pressure [1, 24] was 205.4±1.85 mmHg, the “2-hour hypotensive amplitude (peak of systolic blood pressure reduction)” value [1, 25] was 34.7 mmHg and the “24-hour hypotensive amplitude (trough of systolic blood pressure reduction)” value [1, 25] was 9.1 mmHg. For the same compound, the “valley-peak ratio of Systolic Blood Pressure Reduction” value [1, 25] was 0.26, the “2-hour hypotensive amplitude (peak of systolic blood pressure reduction)” value [1, 26] was 31.5 mmHg and the “24-hour hypotensive amplitude (trough of systolic blood pressure reduction)” value [1, 26] was 7.2 mmHg. The “valley-peak ratio of Systolic Blood Pressure Reduction” value [1, 26] was 0.23, the “2-hour hypotensive amplitude (peak of systolic blood pressure reduction)” value [1, 27] was 32.0 mmHg and the “24-hour hypotensive amplitude (trough of systolic blood pressure reduction)” value [1, 27] was 8.2 mmHg. For the same compound, the “valley-peak ratio of Systolic Blood Pressure Reduction” value [1, 27] was 0.26, the “2-hour hypotensive amplitude (peak of systolic blood pressure reduction)” value [1, 28] was 34.1 mmHg and the “24-hour hypotensive amplitude (trough of systolic blood pressure reduction)” value [1, 28] was 0.8 mmHg. For the same compound, the “valley-peak ratio of Systolic Blood Pressure Reduction” value [1, 28] was 0.02, the “2-hour hypotensive amplitude (peak of systolic blood pressure reduction)” value [1, 29] was 35.5 mmHg and the “24-hour hypotensive amplitude (trough of systolic blood pressure reduction)” value [1, 29] was 2.0 mmHg. The “valley-peak ratio of Systolic Blood Pressure Reduction” value [1, 29] was 0.06, the “2-hour hypotensive amplitude (peak of systolic blood pressure reduction)” value [1, 30] was 31.0 mmHg and the “24-hour hypotensive amplitude (trough of systolic blood pressure reduction)” value [1, 30] was 7.0 mmHg. For the same compound, the “valley-peak ratio of Systolic Blood Pressure Reduction” value [1, 30] was 0.23, the “2-hour hypotensive amplitude (peak of systolic blood pressure reduction)” value [1, 31] was 34.0 mmHg and the “24-hour hypotensive amplitude (trough of systolic blood pressure reduction)” value [1, 31] was 10.3 mmHg. For the same compound, the “valley-peak ratio of Systolic Blood Pressure Reduction” value [1, 31] was 0.30, the “2-hour hypotensive amplitude (peak of systolic blood pressure reduction)” value [1, 32] was 31.7 mmHg and the “24-hour hypotensive amplitude (trough of systolic blood pressure reduction)” value [1, 32] was 7.8 mmHg. The “valley-peak ratio of Systolic Blood Pressure Reduction” value [1, 32] was 0.25, the diastolic blood pressure [2, 33] was 145.9 mmHg and the systolic blood pressure [2, 33] was 176.7 ± 7.42 mmHg. For the same compound, the diastolic blood pressure [2, 34] was 144.8 mmHg, the systolic blood pressure [2, 34] was 178.7 ± 5.64 mmHg and the diastolic blood pressure [2, 35] was 156.5 mmHg. The systolic blood pressure [2, 35] was 202.6 mmHg, the diastolic blood pressure [2, 36] was 157.3 mmHg and the systolic blood pressure [2, 36] was 204.9 mmHg. The diastolic blood pressure [2, 37] was 158.2 mmHg, the systolic blood pressure [2, 37] was 211.7 ± 7.57 mmHg and 211.7 mmHg and 211.7 ± 17.57 mmHg and the “2-hour hypotensive amplitude (peak of systolic blood pressure reduction)” value [2, 38] was 35.0 mmHg. The “24-hour hypotensive amplitude (trough of systolic blood pressure reduction)” value [2, 38] was 9.1 mmHg, the “valley-peak ratio of Systolic Blood Pressure Reduction” value [2, 38] was 0.26 and the “2-hour hypotensive amplitude (peak of systolic blood pressure reduction)” value [2, 39] was 33.0 mmHg. For the same compound, the “24-hour hypotensive amplitude (trough of systolic blood pressure reduction)” value [2, 39] was 6.8 mmHg and the “valley-peak ratio of Systolic Blood Pressure Reduction” value [2, 39] was 0.21.
